Patent US12648941B2, “Piperidine urea derivatives for use as inotropic agents” (Helsinn Healthcare SA, priority 2021, dated 2026)

Tests used:
[1] = tested on: cardiomyocytes isolated from hearts of SHAM mice; assay: Cardiomyocyte contractility (fractional shortening, % FS), SHAM cardiomyocytes; format: cell-based, mouse; details: antagonist 3 μM before AC01/HM01 1 μM
Protocol: (§1) Cardiomyocytes were isolated freshly from cardiac ventricles separately from SHAM and HF mice following the protocol developed by the Alliance for Cellular Signalling (AfCS Procedure Protocol ID PP00000125). From each of the 5 SHAM and 3 HF hearts a cell suspension was made and divided into 10 aliquots each, for a total of 50 aliquots from SHAM and 30 aliquots from HF hearts. These aliquots were treated with vehicle, AC01/HM01 or D-Lys3-GHPR-6+AC01/HM01 as stated and used for the subsequent physiological and biochemical experiments.
(§2) AC01/HM01 was suspended in phosphate buffer saline solution (PBS: in mM: NaCl 137, KCl 7, Na2HPO4 10, KH2PO4 […]) and diluted to obtain 3 different concentrations: 0.2, 0.5 or 1 μM in Tyrode solution. We used a concentration range within 0.2-1 μM to ensure that the receptor was activated. […] Prior to contractility and Ca^2+ signaling measurements and biochemical assays, cardiomyocyte suspensions from SHAM and HF hearts were randomized to 3 types of treatments: vehicle, AC01/HM01, or D-Lys3-GHPR-6+AC01/HM01. The treatment with different agents occurred for 15 minutes at room temperature. Some cell suspension aliquots were flash frozen in liquid N2 and stored at −80° C. for later biochemistry analyses. All the experiments were conducted blinded regarding the treatment of cardiomyocytes.
Fresh isolated cardiomyocytes were aliquoted in 1.5 mL tubes and incubated with a cell permeable form of the fluorescent Ca^2+ indicator Fluo-3 AM for approximately 20 minutes followed by washing for >5 min. The cells were plated on laminin coated glass bottom dishes (35 mm, Mattek, Ashland, MA, USA), and then mounted in a custom built perfusion/stimulation chamber. Cells were continuously perfused with O2/CO2 (95/5%) bubbled Tyrode solution with the following composition (in mM): NaCl 121, KCl 5.0, CaCl2 1.8, MgCl2 0.5, NaH2PO4 0.4, NaHCO3 24, EDTA 0.1, glucose 5.5, which represents the vehicle solution.
15 aliquots of cardiomyocyte suspension from SHAM and 9 aliquots from HF were randomized to different treatments: vehicle, AC01/HM01 (0.2, 0.5 or 1 μM) or pretreatment with D-Lys3-GHPR-6 (3 μM) followed by AC01/HM01 (1 μM). The cardiomyocytes were electrically stimulated to contract at 1 Hz with supra-threshold voltage using two platinum electrodes attached to the perfusion/stimulation chamber.
(§3) Line scan fluorescence images were acquired using a confocal microscope (Biorad; 40× oil immersion lenses). […] ImageJ software (open source software developed by NIH, Bethesda, USA) was used to quantify changes in fluorescence (Ca^2+ transients) and contractility of single cardiomyocytes.
(§4) The contractility of cardiomyocytes was measured as the percent of length shortening (fractional shortening; % FS). […]

[2] = tested on: cardiomyocytes isolated from hearts of heart failure (HF) mice; assay: Cardiomyocyte contractility (fractional shortening, % FS), heart failure (MI) cardiomyocytes; format: cell-based, mouse; details: antagonist 3 μM before AC01/HM01 1 μM
Protocol: as §1
AC01/HM01 was suspended in phosphate buffer saline solution (PBS: in mM: NaCl 137, KCl 7, Na2HPO4 10, KH2PO4 […]) and diluted to obtain 3 different concentrations: 0.2, 0.5 or 1 μM in Tyrode solution. We used a concentration range within 0.2-1 μM to ensure that the receptor was activated. […]
as §3, §4

[3] = tested on: phospho (Ser 22-23) cardiac troponin I (cTnl); assay: Phospho (Ser 22-23) cTnl western blot in cardiomyocytes; format: cell-based, mouse; details: SHAM cardiomyocytes, antagonist 3 μM before AC01/HM01 1 μM
Protocol: as §2
Aliquots of frozen cardiomyocyte suspensions were lysed using NP40 buffer (Thermo Fisher FNN0021, Stockholm, Sweden) supplemented with phosphatase inhibitors (Sigma-Aldrich P2850-1ML, P5726-1ML, Stockholm, Sweden). Protein lysates were separated by electrophoresis and transferred onto membranes. Membranes were incubated with primary antibody: rabbit anti phospho (Ser 22-23) cardiac troponin I (cTnl, Cell Signalling, Leiden, The Netherlands #4004S) and rabbit anti-cTnl (Cell Signalling #4002S, Leiden, The Netherlands). Thereafter, infrared-labelled secondary antibodies (IRDye 680 and IRDye 800, 1:5000, Licor) were used. Immunoreactive bands were analyzed using the Odyssey Infrared Imaging System (Li-Cor, Bad Homburg, Germany). Band densities were quantified with Image J (NIH, Bethesda, USA), normalized to total cTnl and final data was expressed as fold increase compared to bands representing protein extracted from vehicle treated cells.

[4] = tested on: Protein kinase A (PKA); assay: PKA activity assay in cardiomyocytes (ELISA-based kit); format: cell-based, mouse; details: isolated cardiomyocytes, pretreatment before AC01/HM01 1 μM
Protocol: as §2
Elisa-based PKA kinase activity assay kit (ab139435, Abcam, Cambridge, UK) was employed to determine PKA activity in cardiomyocytes. Aliquots of frozen cardiomyocytes were thawed and mixed with a lysis buffer containing (mM) the following: 20 MOPS, 50 β-glycerolphosphate, 5 EGTA, 2 EDTA, 1 benzamidine, 1 sodium orthovanadate, 1% NP40, 1 DTT, complete protease inhibitor cocktail (Roche Diagnostics, West Sussex, UK) and phosphatase inhibitor cocktail 3 (Sigma, Gillingham, UK). Approximately 2 μg of protein of each sample were assayed according to the manufacturer's instructions 27.

[5] = target: ghrelin receptor (Homo sapiens, UniProt Q92847); details: ghrelin receptor antagonist; Sigma Aldrich; read-out: IC50 for antagonistic activity; cited from earlier work
ghrelin receptor, sequence (Q92847 whole entry, species assumed): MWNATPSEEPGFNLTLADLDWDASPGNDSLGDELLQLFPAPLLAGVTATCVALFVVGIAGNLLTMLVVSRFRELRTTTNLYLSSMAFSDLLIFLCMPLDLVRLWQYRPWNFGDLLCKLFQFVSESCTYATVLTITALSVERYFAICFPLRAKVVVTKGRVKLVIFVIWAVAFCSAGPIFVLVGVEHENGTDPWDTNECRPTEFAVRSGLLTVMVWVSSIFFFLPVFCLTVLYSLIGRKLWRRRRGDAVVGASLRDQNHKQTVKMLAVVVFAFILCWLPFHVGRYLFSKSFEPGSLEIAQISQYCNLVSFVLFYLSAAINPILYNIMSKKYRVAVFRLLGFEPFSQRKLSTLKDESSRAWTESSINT

D-Lys 3 GHRP-6 [reference compound]
effect of pretreatment on contractile effect of AC01/HM01 [1]: blocked the contractile effect | effect of pretreatment on contractile effect of AC01/HM01 [2]: blocked the contractile effect | effect of pretreatment on AC01/HM01-induced change of cTnl phosphorylation ([3]; listed as D-Lys3): blocked this effect | effect of pretreatment on AC01/HM01-induced change of cTnl phosphorylation ([3]; listed as D-Lys3—GHRP-6): restored the phosphorylation levels of cTnl to physiologic levels | effect of pretreatment on AC01/HM01-induced change of PKA activity ([4]; listed as D-Lys 3): blocked | effect of pretreatment on AC01/HM01-induced change of PKA activity ([4]; listed as D-Lys 3-GHRP-6): restored the PKA activity to physiologic levels | IC50 [5]: 900 nM
